Data published in patent publication US6670365B1, “Substituted imidazo 1,2a}azines as selective inhibitors of cox-2” (Laboratorios S.A.L.V.A.T., S.A., priority 1998, dated 2003).

How the values were obtained:
COX-1 = target: T1, COX-1 (Homo sapiens, UniProt P23219); assay: Assay for in vitro COX-1 inhibition in fresh whole blood without anticoagulants (TXB2 by EIA); type: cell-based; conditions: no anticoagulants, compound 0.1 to 100 μM, 37° C. for 1 hour, TXB2 levels in plasma by EIA
T1 construct: Fresh blood was collected into sterile containers with no anticoagulants; endogenous in cells; host or cells: fresh whole blood without anticoagulants (platelet COX-1, TXB2 read-out)
Description: Assay for in vitro COX-1 Inhibition
Fresh blood was collected into sterile containers with no anticoagulants. Aliquots of 500 μL were immediately transferred to eppendorf tubes, preloaded with a test compound each, at final concentrations varying from 0.1 to 100 μM. The eppendorf tubes were vortexed and incubated at 37° C. for 1 hour. At the end of incubation, plasma was obtained by centrifugation and stored at −80° C. TXB2 levels in plasma were established using EIA (Cayman Chemical).

COX-2 = target: T2, COX-2 (Homo sapiens, UniProt P35354); assay: Assay for in vitro COX-2 inhibition in LPS-stimulated human whole blood (PGE2 by EIA); type: cell-based; conditions: for IC50: human whole blood, compound 0.1 to 25 μM, 15 minutes at 37° C., LPS 100 μg/mL for 24 h, PGE2 levels in plasma by EIA; for selective COX-2 inhibitory activity (COX-2 in preference to COX-1): in vitro, statement in words referring to Table 1
T2 construct: endogenous in cells; host or cells: human whole blood from volunteers, stimulated with LPS
T2 sequence (P35354 18-604): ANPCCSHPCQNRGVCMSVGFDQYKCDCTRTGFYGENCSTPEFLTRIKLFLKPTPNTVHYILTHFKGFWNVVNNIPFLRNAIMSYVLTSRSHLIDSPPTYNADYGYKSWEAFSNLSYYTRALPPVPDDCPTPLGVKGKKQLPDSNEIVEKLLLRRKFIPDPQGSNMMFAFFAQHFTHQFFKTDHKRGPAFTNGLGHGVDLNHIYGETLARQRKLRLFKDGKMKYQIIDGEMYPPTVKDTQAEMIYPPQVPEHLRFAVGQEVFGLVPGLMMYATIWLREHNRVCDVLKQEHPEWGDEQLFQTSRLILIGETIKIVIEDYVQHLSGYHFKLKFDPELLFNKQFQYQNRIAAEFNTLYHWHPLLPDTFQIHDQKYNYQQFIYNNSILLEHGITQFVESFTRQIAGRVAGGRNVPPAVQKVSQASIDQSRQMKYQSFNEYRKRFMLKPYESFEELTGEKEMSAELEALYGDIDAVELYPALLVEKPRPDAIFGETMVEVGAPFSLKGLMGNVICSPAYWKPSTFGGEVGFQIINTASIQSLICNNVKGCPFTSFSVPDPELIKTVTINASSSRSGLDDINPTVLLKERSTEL
Description: Assay for in vitro COX-2 Inhibition
Human whole blood from volunteers with no apparent inflammatory conditions and not having taken any NSAIDs for at least 15 days prior to blood collection was used to evaluate the COX-2 inhibitory effect of the synthesized compounds. […] At the end of the incubation, the blood was centrifuged at 10.000 rpm to obtain plasma, and the samples were stored at −80° C. PGE2 levels in plasma were established using EIA (Cayman Chemical).

T1 sequence (P23219 24-599): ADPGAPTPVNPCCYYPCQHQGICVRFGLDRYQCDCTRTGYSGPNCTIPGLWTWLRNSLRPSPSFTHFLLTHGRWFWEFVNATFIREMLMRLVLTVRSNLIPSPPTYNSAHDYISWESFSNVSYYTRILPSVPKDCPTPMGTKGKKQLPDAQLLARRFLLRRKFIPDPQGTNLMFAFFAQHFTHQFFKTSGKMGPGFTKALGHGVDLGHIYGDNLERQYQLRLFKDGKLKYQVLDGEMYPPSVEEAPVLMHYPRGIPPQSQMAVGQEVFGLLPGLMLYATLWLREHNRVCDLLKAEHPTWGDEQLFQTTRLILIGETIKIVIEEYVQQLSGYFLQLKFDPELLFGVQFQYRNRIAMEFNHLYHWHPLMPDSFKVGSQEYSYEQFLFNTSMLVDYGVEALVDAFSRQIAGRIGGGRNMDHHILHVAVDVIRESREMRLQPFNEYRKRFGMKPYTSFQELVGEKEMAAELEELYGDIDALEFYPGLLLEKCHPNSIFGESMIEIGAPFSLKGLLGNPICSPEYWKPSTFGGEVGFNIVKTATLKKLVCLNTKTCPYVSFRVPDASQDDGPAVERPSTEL

Row | Compound | IC50 (COX-1) | IC50 (COX-2) | selective COX-2 inhibitory activity (COX-2 in preference to COX-1) (COX-2)
1 | COc1ccc(-c2nc3ncccn3c2-c2ccc(S(C)(=O)=O)cc2)cc1C [Product Ii, 2-(3-methyl-4-methoxyphenyl)-3-(4-methylsulfonylphenyl)imidazo[1,2a]pyrimidine] | 30 µM | 2.2 µM | 
2 | 2-phenyl-3-(4-aminosulfonylphenyl)imidazo[1,2a][1,2,4]triazine [Product Idd] | > 50 µM | 3.8 µM | 
3 | Cc1ccccc1-c1nc2ccccn2c1-c1ccc(S(N)(=O)=O)cc1 [Product Innn, 2-(2-methylphenyl)-3-(4-aminosulfonylphenyl)imidazo[1,2a]pyridine] | > 100 µM | > 5 µM | 
4 | COc1ccc(-c2nc3ccccn3c2-c2ccc(S(N)(=O)=O)cc2)cc1C [Product Iuuu, 2-(3-methyl-4-methoxyphenyl)-3-(4-aminosulfonylphenyl)imidazo[1,2a]pyridine] | 25 µM | 1.7 µM | 
5 | COc1ccc(-c2nc3ccccn3c2-c2ccc(S(C)(=O)=O)cc2)cc1 [Product Iccc, 2-(4-methoxyphenyl)-3-(4-methylsulfonylphenyl)imidazo[1,2a]pyridine] | 40 µM | 3.3 µM | 
6 | CS(=O)(=O)c1ccc(-c2c(-c3ccccc3)nc3ncccn23)cc1 [Product Ia, 2-phenyl-3-(4-methylsulfonylphenyl)imidazo [1,2a]pyrimidine] | > 50 µM | 5.5 µM | 
7 | Cc1ccn2c(-c3ccc(S(C)(=O)=O)cc3)c(-c3ccc(C)c(C)c3)nc2n1 [Product In, 7-methyl-2-(3,4-dimethylphenyl)-3-(4-methylsulfonylphenyl)imidazo[1,2a]pyrimidine] | 2 µM | 4.2 µM | 
8 | COc1ccc(-c2nc3ncccn3c2-c2ccc(S(C)(=O)=O)cc2)cc1 [Product If, 2-(4-methoxyphenyl)-3-(4-methylsulfonylphenyl)imidazo[1,2a]pyrimidine] | 25 µM | 1.4 µM | specially selective COX-2 inhibitory activity
9 | 2-(3-fluorophenyl)-3-(4-aminosulfonylphenyl)imidazo[1,2a][1,2,4]triazine [Product Ihh] | 100 µM |  | 
10 | Cc1ccc(-c2nc3ncccn3c2-c2ccc(S(C)(=O)=O)cc2)cc1 [Product Ib, 2-(4-methylphenyl)-3-(4-methylsulfonylphenyl)imidazo[1,2a]pyrimidine] | > 50 µM |  | 
11 | NS(=O)(=O)c1ccc(-c2c(-c3cccc(F)c3)nc3ccccn23)cc1 [Product Iqqq, 2-(3-fluorophenyl)-3-(4-aminosulfonylphenyl)imidazo[1,2a]pyridine] | > 100 µM | > 10 µM | 
12 | CCOc1ccc(-c2nc3ncccn3c2-c2ccc(S(C)(=O)=O)cc2)cc1 [Product Ig, 2-(4-ethoxyphenyl)-3-(4-methylsulfonylphenyl)imidazo[1,2a]pyrimidine] |  | 1 µM | specially selective COX-2 inhibitory activity

Further lines, with some results ahead:

Row | IC50 (COX-1) | IC50 (COX-2) | Compound | selective COX-2 inhibitory activity (COX-2 in preference to COX-1) (COX-2)
13 | 82 µM | 6.8 µM | COc1ccc(-c2nc3ccccn3c2-c2ccc(S(C)(=O)=O)cc2)cc1Cl [Product Ihhh, 2-(3-chloro-4-methoxyphenyl)-3-(4-methylsulfonylphenyl)imidazo[1,2a]pyridine] | 
14 | > 50 µM | > 10 µM | CS(=O)(=O)c1ccc(-c2c(-c3ccc(Cl)cc3)nc3ncccn23)cc1 [Product Id, 2-(4-chlorophenyl)-3-(4-methylsulfonylphenyl)imidazo[1,2a]pyrimidine] | 
15 | 10 µM | 2.8 µM | 2-(3-methylphenyl)-3-(4-aminosulfonylphenyl)imidazo[1,2a][1,2,4]triazine [Product Igg] | 
16 | 80 µM | 3.5 µM | CCOc1ccc(-c2nc3ccccn3c2-c2ccc(S(C)(=O)=O)cc2)cc1 [Product Iddd, 2-(4-ethoxyphenyl)-3-(4-methylsulfonylphenyl)imidazo[1,2a]pyridine] | 
17 | > 50 µM | 2.8 µM | Cc1ccc(-c2nc3ncccn3c2-c2ccc(S(C)(=O)=O)cc2)cc1C [Product Ih, 2-(3,4-dimethylphenyl)-3-(4-methylsulfonylphenyl)imidazo[1,2a]pyrimidine] | 
18 | 61 µM | 3.9 µM | COc1ccc(-c2nc3ncccn3c2-c2ccc(S(C)(=O)=O)cc2)cc1Cl [Product Ik, 2-(3-chloro-4-methoxyphenyl)-3-(4-methylsulfonylphenyl)imidazo[1,2a]pyrimidine] | 
19 | > 50 µM | 2.9 µM | CS(=O)(=O)c1ccc(-c2c(-c3ccc(F)cc3)nc3ncccn23)cc1 [Product Ic, 2-(4-fluorophenyl)-3-(4-methylsulfonylphenyl)imidazo[1,2a]pyrimidine] | specially selective COX-2 inhibitory activity
20 | > 50 µM | 4.5 µM | Cc1ccc(-c2nc3ncccn3c2-c2ccc(S(N)(=O)=O)cc2)cc1 [Product Io, 2-(4-methylphenyl)-3-(4-aminosulfonylphenyl)imidazo[1,2a]pyrimidine] | 
21 |  | 3.1 µM | Cc1cccc(-c2nc3ccccn3c2-c2ccc(S(N)(=O)=O)cc2)c1 [Product Ippp, 2-(3-methylphenyl)-3-(4-aminosulfonylphenyl)imidazo[1,2a]pyridine] | 
22 | 50 µM | 2.2 µM | 2-(4-fluorophenyl)-3-(4-methylsulfonylphenyl)imidazo[1,2a][1,2,4]triazine [Product Ibb] | 
23 | 76 µM | 3.1 µM | 2-phenyl-3-(4-methylsulfonylphenyl)imidazo[1,2a][1,2,4]triazine [Product Iaa] | 
24 | 45 µM | 1 µM | COc1ccc(-c2nc3ccccn3c2-c2ccc(S(C)(=O)=O)cc2)cc1C [Product Ifff, 2-(3-methyl-4-methoxyphenyl)-3-(4-methylsulfonylphenyl)imidazo[1,2a]pyridine] | 
